Columns and labels:
E. coli = assay: Ferrate disinfection test of harbor waters, E. coli count; format: cell-based
Source text: (§1) We have conducted preliminary ferrate disinfection tests of harbor waters at two locations in the Port of Cape Canaveral, Fla. Sample A was collected at the inner Port, while Sample B was collected closer to the exit at the Port nearer to the open ocean.

aerobic spore-formers = conditions: chlorine resistant bacteria; cited from earlier work
[1] = tested on: sulfite-reducing clostridia; conditions: chlorine resistant bacteria; cited from earlier work
Heterotrophic bacteria = assay: Ferrate disinfection test of harbor waters, Heterotrophic bacterial plate count (HPC); format: cell-based; conditions: for HPC: ferrate dose 2.0 mg/L FeO4^2−
Source text: as §1

Total Coliform = assay: Ferrate disinfection test of harbor waters, Total Coliform count; format: cell-based
Source text: as §1

total coliforms = conditions: water sources collected worldwide; cited from earlier work
virus f2 = conditions: low concentrations in water; cited from earlier work
biofilm = conditions: model condensers dosed with 10^−5 M solutions of ferrate twice a day, for 5 minutes; cited from earlier work
[2] = harbor water Sample A, ferrate dose 1.0 mg/L FeO4^2−
[3] = harbor water Sample A, ferrate dose 2.0 mg/L FeO4^2−
[4] = harbor water Sample B, ferrate dose 1.0 mg/L FeO4^2−
[5] = harbor water Sample B, ferrate dose 2.0 mg/L FeO4^2−

[O]=[Fe](=[O])([O-])[O-] [Ferrate, ferrate]
disinfection for E. coli (in words) (E. coli; both samples, dose 0.5 mg/L): effective in killing E. coli
E. Coli (E. coli; harbor water Sample A, ferrate dose 0.5 mg/L FeO4^2−): <1 MPN/100 mL
E. Coli (E. coli; [2]): <1 MPN/100 mL
E. Coli (E. coli; [3]): <1 MPN/100 mL
E. Coli (E. coli; harbor water Sample B, ferrate dose 0.5 mg/L FeO4^2−): <1 MPN/100 mL
E. Coli (E. coli; [4]): <1 MPN/100 mL
E. Coli (E. coli; [5]): <1 MPN/100 mL
reduction of spore-formers (aerobic spore-formers): up to 3 log units
killing of sulfite-reducing clostridia [1]: effectively killed
HPC (Heterotrophic bacteria; harbor water Sample A): <5 cfu/mL
HPC (Heterotrophic bacteria; harbor water Sample B): <5 cfu/mL
levels of Heterotrophic bacteria after ferrate (in words) (Heterotrophic bacteria; samples A and B, dose of approximately 2 mg/L): reduced to non-detectable values
total coliform level after ferrate addition (in words) (Total Coliform; Sample A, ferrate dose 0.5 mg/L): reduced to non-detectable levels
Total Coliform (Total Coliform; harbor water Sample A (inner Port, Port of Cape Canaveral), ferrate dose 0.5 mg/L FeO4^2−): <1 MPN/100 mL
Total Coliform (Total Coliform; [2]): <1 MPN/100 mL
Total Coliform (Total Coliform; [3]): <1 MPN/100 mL
Total Coliform (Total Coliform; harbor water Sample B (near Port exit), ferrate dose 0.5 mg/L FeO4^2−): <1 MPN/100 mL
Total Coliform (Total Coliform; [4]): <1 MPN/100 mL
Total Coliform (Total Coliform; [5]): <1 MPN/100 mL
removal of total coliforms (total coliforms): complete removal
inactivation of virus f2 (virus f2): rapidly inactivates
biofilm growth (biofilm): inhibited

Reference: US7820025B2, “Methods of synthesizing an oxidant and applications thereof” (Ferrate Treatment Technologies, LLC, priority 2000, dated 2010)
